The test system of the experiment is iPSC-fRPE cells. As to the kind of experiment: Compound screen for RPE pigmentation in iPSC-fRPE cells (light absorbance at 510 nm). Format: cell-based, human. The settings on record: for Relative Pigmentation: test compound 5 μM in 0.1% DMSO, 32 days, absorbance at 510 nm, relative to plate internal DMSO controls (control = 1); for pigmentation of RPE cells / activity, result in words: qualitative statement. As for the experimental part:
Induced pluripotent stem cell-derived fetal RPE (iPSC-fRPE) cells acquired from the University of California, Santa Barbara, were generated from human fetal RPE cells that were isolated and reprogramed to iPSC, then differentiated and sorted for cellular markers to collect RPE progenitors. Vials were transported frozen on dry ice and stored in minus 80° C.
For the phenotypic screens, iPSC-fRPE cells were thawed and cultured in Matrigel-coated flasks with N1VA media containing 1×MEM solution supplemented with 2.2 g/L Sodium Bicarbonate, 0.25 mg/ml Taurine, 0.02 ug/ml Hydrocortisone, 0.013 ug/ml Triiodo Thyronine, 0.1 ug/ml Lipoic acid, 1% MEM Non-Essential Amino Acids, 1% Penicillin/Streptomycin, 2% Neurocult SM1 supplement and 1% N1 supplement. For the initial cultures, Thiazovivin was added to the media at 2 uM for the first 24 hr of incubation, after which the media was replaced with fresh N1VA media for additional three-day incubation at 37° C. with 5% CO2.
iPSC-fRPE cells were plated with N1VA media at a density of 10,000 cells per well in Matrigel-coated 96-well plates and cultured for 24 hr prior to the treatment with test compounds at a final concentration of 5 μM in 0.1% DMSO. Internal controls for each test plate were (a) 0.1% DMSO as a negative control and (b) 0.1% DMSO+10 ng/ml human recombinant bFGF (STEMCELL) as a positive control. To identify hits that promote RPE pigmentation, cells were maintained for a period of 32 days and treated with medium containing the test or control compounds according to the media exchange regimen (FIG. 1). The degree of pigmentation was quantified by measuring the light absorbance at 510 nm with Cytation5 imaging reader (BIOTEK). Compounds that increased the normalized absorbance endpoint by more than three standard deviations over the average DMSO readout per plate were considered as hits. Pigmentation values are finally reported relative to plate internal DMSO controls.

Take `O=C(Nc1ccc(-c2cnco2)c(Cl)c1)C1CCOc2ccccc21` (racemic) [Compound 4, N-(3-chloro-4-(oxazol-5-yl)phenyl) chromane-4-carboxamide]: the “Relative Pigmentation” value was found to be 2.65.

For the compound “N-(3-chloro-4-(oxazol-5-yl)phenyl)-1,2,3,4-tetrahydronaphthalene-2-carboxamide [Compound 5]”, the “Relative Pigmentation” value came out at 1.18.

As to `O=C(Nc1ccc(-c2cnco2)c(Cl)c1)C1Cc2ccccc2C1` [Compound 7, N-(3-chloro-4-(oxazol-5-yl)phenyl)-2,3-dihydro-1H-indene-2-carboxamide], the “pigmentation of RPE cells / activity, result in words” value is listed as “excellent results” and the “Relative Pigmentation” value is given as 2.92.

On to `O=C(Nc1ccc(-c2cnco2)c(Cl)c1)C1CCc2ccccc21` (racemic) [Compound 6, N-(3-chloro-4-(oxazol-5-yl)phenyl)-2,3-dihydro-1H-indene-1-carboxamide], for which the “Relative Pigmentation” value came to 1.86.

Take `O=C(Nc1ccc(-c2cnco2)c(Cl)c1)C1Cc2ccccc2CO1` (racemic) [Compound 3, N-(3-chloro-4-(oxazol-5-yl)phenyl)isochromane-3-carboxamide]: the “Relative Pigmentation” value was determined as 1.66.

As for `O=C(Nc1ccc(-c2cnco2)c(Cl)c1)C1COc2ccccc2C1` (single isomer, unassigned; (+)) [Compound 2, (+)-N-(3-chloro-4-(1,3-oxazol-5-yl)phenyl)chromane-3-carboxamide], the “Relative Pigmentation” value is given as 1.68.

As to `O=C(Nc1ccc(-c2cnco2)c(Cl)c1)C1COc2ccccc2C1` (single isomer, unassigned; (-)) [Compound 1, (−)-N-(3-chloro-4-(1,3-oxazol-5-yl)phenyl)chromane-3-carboxamide], the “pigmentation of RPE cells / activity, result in words” value was “excellent results” and the “Relative Pigmentation” value is 3.05.

(Values after patent US12630542B2, “Compounds and their use as therapeutically active substances in the treatment and/or prevention of diseases involving the retinal pigment epithelium” (ENDOGENA THERAPEUTICS, INC., priority 2020, dated 2026).)
